A word on the inhibition: it is the drop in the measured response relative to a control, in per cent.

We go through 7 compounds from article PMC5355811 (Nature Communications, 2017).

Assay [1] deals with Ba/F3 cells expressing EGFR-del19. In words: CellTiter-Glo cell viability assay, Ba/F3 EGFR-del19. To be noted: Mus musculus. The format is cell-based. As for the experimental part:
(§1) Three-day cell viability assays were carried out by plating 2,000, 1,500 and 2,000 cells per well of Ba/F3, PC9 or MGH121, respectively, into black transparent-bottom 96-well plates. On the same day for Ba/F3 cells and the following day for PC9 and MGH121 cells, the cells were treated with each TKI across a 10-dose range from 0.3 nmol l^−1 to 10 μmol l^−1. After 72 h of drug treatment, cell viability was measured using the CellTiter-Glo assay (Promega).

Assay [2] has as its system Ba/F3 cells expressing EGFR-T790M/del19. In words: CellTiter-Glo cell viability assay, Ba/F3 EGFR-T790M/del19. Format: cell-based. As to conditions: Mus musculus, BaF3, 72 h. As for the experimental part:
as §1
On the technique in general: In ATP-based viability assays light output follows the ATP content of the culture.

The test system of assay [3] is Ba/F3 cells expressing EGFR-C797S/T790M/del19. Briefly: CellTiter-Glo cell viability assay, Ba/F3 EGFR-C797S/T790M/del19. Format: cell-based. To be noted: for IC50: Mus musculus, BaF3, 72 h, 72 h. The method, then:
as §1

The test system of assay [4] is Ba/F3 cells expressing EGFR-L858R. In words: CellTiter-Glo cell viability assay, Ba/F3 EGFR-L858R. Format: cell-based. To be noted: Mus musculus, BaF3, 72 h. As for the experimental part:
as §1

Assay [5] has as its system Ba/F3 cells expressing EGFR-T790M/L858R. In words: CellTiter-Glo cell viability assay, Ba/F3 EGFR-T790M/L858R. The format is cell-based. To be noted: Mus musculus, BaF3, 72 h. As for the experimental part: as §1
The subject of assay [6] is Ba/F3 cells expressing EGFR-C797S/T790M/L858R. Briefly: CellTiter-Glo cell viability assay, Ba/F3 EGFR-C797S/T790M/L858R. The format is cell-based. As to conditions: Mus musculus, BaF3, 72 h. The method, then: as §1
A further assay relates to PC9 parent cells (del19). Briefly: CellTiter-Glo cell viability assay, PC9 parent. The format is cell-based. As to conditions: 72 h, read-out: IC50, PC9 parent. As for the experimental part: as §1
Assay [7] has as its system PC9 T790M cells (T790M/del19). Briefly: CellTiter-Glo cell viability assay, PC9 T790M. Format: cell-based. As to conditions: 72 h, read-out: IC50, PC9 T790M. As for the experimental part: as §1
The test system of assay [8] is PC9 triple-mutant cells (C797S/T790M/del19). In words: CellTiter-Glo cell viability assay, PC9 triple mutant. As to conditions: 72 h, read-out: IC50, PC9 triple. Format: cell-based. The method, then:
as §1

Assay [9] deals with Ba/F3 cells of EGFR-del19. In words: Drug sensitivity screening at 100 nM, Ba/F3 EGFR-del19. As to conditions: for Relative cell viability (% of DMSO control) in del19 Ba/F3 cells: 100 nM; for viability at 0.1 µM: Mus musculus, BaF3, 72 h, read-out: Relative cell viability (ratio to DMSO control), del19. Format: cell-based. The method, then:
(§2) After the incubation, cell viability was measured using CellTiter-Glo assay. The relative cell viability was calculated as a ratio of each value to that of the DMSO control.

In assay [10] the test system is Ba/F3 cells of EGFR-T790M/del19. Briefly: Drug sensitivity screening at 100 nM, Ba/F3 EGFR-T790M/del19. Format: cell-based. As to conditions: for Relative cell viability (% of DMSO control): 100 nM; for viability at 0.1 µM: Mus musculus, BaF3, 72 h, read-out: Relative cell viability (ratio to DMSO control), del19/T790M. The method, then: as §2
Assay [11] relates to Ba/F3 cells of EGFR-C797S/T790M/del19. Briefly: Drug sensitivity screening at 100 nM, Ba/F3 EGFR-C797S/T790M/del19. Format: cell-based. As to conditions: Mus musculus; for viability at 0.1 µM: BaF3, 72 h, 100 nM inhibitor, 72 h, DMSO = 100, mean of three independent experiments (Fig. 1a data). The method, then: as §2
The test system of assay [12] is EGFR phosphorylation in PC9 triple-mutant cells. Briefly: Western blotting of EGFR signalling, PC9 triple mutant. The format is cell-based. The method, then:
(§3) Tumour tissues or cells grown under the specified conditions were washed with cold PBS before addition of the SDS lysis buffer (100 mM Tris, 1% SDS, 10% glycerol). Lysates were transferred to microtubes, boiled for 5 min at 100 °C and then vortexed. Protein quantification was performed using the BCA Protein Assay Reagent (Pierce) according to the manufacturer's protocol. Western blot analyses were conducted after separation by SDS-PAGE and transferred to polyvinylidene difluoride membranes.

Assay [13] relates to MGH121 parental cells (T790M/del19). In words: cells. The format is cell-based. To be noted: Homo sapiens, MGH121; Table 1e; 72 h; read-out: IC50, MGH121-pt. The method, then:
as §1

In assay [14] the test system is MGH121-res2 cells (C797S/T790M/del19). Briefly: cells. The format is cell-based. To be noted: Homo sapiens, MGH121; Table 1e; 72 h; read-out: IC50, MGH121-res2. As for the experimental part: as §1
The test system of assay [15] is phosphorylation of EGFR in Ba/F3 cells expressing EGFR-C797S/T790M/del19. Briefly: Western blotting of EGFR signalling, Ba/F3 triple-del19. The format is cell-based. As to conditions: 6 h. As for the experimental part: as §3
In assay [16] the test system is PC9-T790M (T790M/del19) xenograft. Briefly: PC9-T790M xenograft. The format is in vivo, Balb-c nu/nu mice. To be noted: osimertinib 50 mg kg^−1, brigatinib 75 mg kg^−1.
Procedure: (§4) Tumour growth was monitored twice weekly by bilateral caliper measurement, and tumour volume was calculated as 0.5 × length × width × width (mm^3). […] The mice whose implanted tumour size was ranked in the top 5% and bottom 5% were excluded from randomization to minimize the variation of tumour sizes. The mice were treated once daily by oral gavage for the indicated period. Relative tumour volume was calculated by dividing by the tumour volume on day 0. The body weights of the mice were measured twice weekly. Implanted tumours were resected from the mice on day 15 of drug treatment and were fixed with formalin. The mice were euthanized when the tumour size exceeded 700 mm^3 within several days. The investigators performing tumour measurements were not blinded to treatment groups. The sample size (minimum n=6 per treatment group) was selected to ensure satisfactory inter-animal reproducibility. The Mann–Whitney U test was used for the statistical analysis of the mice experiments.
In assay [17] the test system is PC9-triple mutant (C797S/T790M/del19) xenograft. As to conditions: osimertinib 50 mg kg^−1, brigatinib 75 mg kg^−1 once daily oral; cetuximab 1 mg per mouse three times a week; panitumumab 0.5 mg per mouse two times a week.
Procedure: as §4
In a further assay the test system is confirmed EGFR T790M. The arrangement: method as in PMID 25923549. As to conditions: 127 patients with confirmed EGFR T790M, phase 1/2 trial; cited from earlier work.
Where [18] appears, read: BaF3, Fig. 3c, 72 h, read-out: IC50, Ba/F3 Del19.
Where [19] appears, read: Fig. 3c, read-out: IC50, Ba/F3 T790M/del19.
Where [20] appears, read: Supplementary Fig. 8e, read-out: IC50, Ba/F3 L858R.
[21] abbreviates: Supplementary Fig. 8e, read-out: IC50, Ba/F3 T790M/L858R.
The mark [22] stands for this setting: 100 nM inhibitor, 72 h, DMSO = 100, mean of three independent experiments (Fig. 1a data).

SMILES strings stand for the structures. Where two headings read alike, the source gives them in different places.

`COc1cc(N2CCC(N(C)C)CC2)ccc1Nc1ncc(Cl)c(Nc2ccccc2P(C)(C)=O)n1` [AP26113-analog]: the IC50 in assay [1] (setting [18]) was 36.9 nM; in [2] (setting [19]) it was 139 nM; in assay [3] (Fig. 3b,c), less than 100 nM; in assay [4] (setting [20]) it was 92.1 nM; in assay [5] (setting [21]), 36 nM; in assay [6] (Supplementary Fig. 8e), 69.2 nM. The IC50 with PC9 parent cells (del19) (Table 1d, ALK–TKIs) amounted to 46.2 nM; in assay [7] (Table 1d, ALK–TKIs) it was 89.3 nM; in assay [8] (Table 1d, ALK–TKIs), 195 nM. Also, the “change of IC50 by combination with cetuximab, triple-del19 Ba/F3 cells” value in [3] (with or without cetuximab 10 μg ml^−1, 72 h) is “approximately three-fold decrease of IC50”.
On to `COc1cc(N2CCC(N3CCN(C)CC3)CC2)ccc1Nc1ncnc(Nc2ccccc2S(=O)(=O)C(C)C)n1` [ASP3026], for which the IC50 in assay [1] (setting [18]) came out at 450 nM; in assay [2] (setting [19]) it was 2160 nM; in [3] (Fig. 3b,c) it was 1510 nM; in [4] (setting [20]), 948 nM; in assay [5] (setting [21]), 1690 nM; in assay [6] (Supplementary Fig. 8e) it was 2150 nM. Moreover, the “Relative cell viability (% of DMSO control) in del19 Ba/F3 cells” value in assay [9] (72 h, DMSO = 100, experiment 1) is listed as 92.7195; in [9] (72 h, DMSO = 100, experiment 2), 100.941; in assay [9] (72 h, DMSO = 100, experiment 3), 101.38. For the same compound, the viability at 0.1 µM came out at 98.3% in assay [9] (setting [22]), 106% in assay [10] (setting [22]) and 126% in assay [11]. Besides, the “Relative cell viability (% of DMSO control)” value in assay [10] (72 h, DMSO = 100, experiment 1) came to 93.2109; in [10] (72 h, DMSO = 100, experiment 2), 112.991; in [10] (72 h, DMSO = 100, experiment 3), 110.516.
On to `COc1cc(N2CCC(N)CC2)ccc1Nc1ncc(Cl)c(-c2c[nH]c3ccccc23)n1` [AZD3463], for which the IC50 in [1] (setting [18]) stood at 90 nM; in assay [2] (setting [19]), 175 nM; in [3] (Fig. 3b,c), 132 nM; in assay [4] (setting [20]) it was 287 nM; in [5] (setting [21]), 184 nM; in assay [6] (Supplementary Fig. 8e), 168 nM. Moreover, the IC50 came to 253 nM with PC9 parent cells (del19) (Table 1d, ALK–TKIs); 378 nM in assay [7] (Table 1d, ALK–TKIs); 622 nM in [8] (Table 1d, ALK–TKIs). In addition, the “Relative cell viability (% of DMSO control) in del19 Ba/F3 cells” value in assay [9] (72 h, DMSO = 100, experiment 1) was 35.8012; in assay [9] (72 h, DMSO = 100, experiment 2), 31.981; in assay [9] (72 h, DMSO = 100, experiment 3), 37.0414. Further, the viability at 0.1 µM in assay [9] (setting [22]) stood at 34.9%; in assay [10] (setting [22]) it was 86.4%; in [11], 89.3%. Also, the “Relative cell viability (% of DMSO control)” value in [10] (72 h, DMSO = 100, experiment 1) is listed as 78.5876; in assay [10] (72 h, DMSO = 100, experiment 2), 91.5008; in assay [10] (72 h, DMSO = 100, experiment 3), 89.0461. Moreover, the “EGFR phosphorylation and downstream signalling, PC9 triple-mutant cells” value in [12] is given as “mild activity”.
For `Cc1cc(Nc2ncc(Cl)c(Nc3ccccc3S(=O)(=O)C(C)C)n2)c(OC(C)C)cc1C1CCNCC1` [Ceritinib, ceritinib], the IC50 is 524 nM in [1] (setting [18]), 780 nM in [3] (Fig. 3b,c), 1160 nM in [4] (setting [20]) and 685 nM in [5] (setting [21]). Further, the viability at 0.1 µM is 96.5% in assay [9] (setting [22]) and 135% in [11].
Take `Cc1cc(C(=O)Nc2nc3cccc(Cl)c3n2[C@@H]2CCCCN(C(=O)/C=C/CN(C)C)C2)ccn1` [EGF-816]: the IC50 in assay [1] (BaF3, Table 1a, 72 h, read-out: IC50, Ba/F3-EGFR-Del19) was found to be 2.9 nM; in assay [2] (Table 1a, read-out: IC50, Ba/F3-EGFR-T790M/del19) it was 18.5 nM; in assay [3] (Table 1a, read-out: IC50, Ba/F3-EGFR-C797S/T790M/del19), 1410 nM; in assay [4] (Table 1b, read-out: IC50, Ba/F3-EGFR-L858R) it was 7.7 nM; in assay [5] (Table 1b, read-out: IC50, Ba/F3-EGFR-T790M/L858R) it was 15.5 nM; in assay [6] (Table 1b, read-out: IC50, Ba/F3-EGFR-C797S/T790M/L858R), 2280 nM.
For the compound `C=CC(=O)Nc1cc(Nc2nccc(-c3cn(C)c4ccccc34)n2)c(OC)cc1N(C)CCN(C)C` [Osimertinib, osimertinib], the IC50 in the assay with PC9 parent cells (del19) (Table 1c, EGFR–TKIs) stood at 7.46 nM; in assay [7] (Table 1c, EGFR–TKIs), 11.3 nM; in [8] (Table 1c, EGFR–TKIs), 3460 nM; in assay [13], 2.58 nM; in [14], 7160 nM. The viability at 0.1 µM was determined as 1.58% in [9] and 7.61% in assay [10]. Also, in [15], the “phosphorylation of EGFR and downstream signalling, Ba/F3 triple-del19” value was “lack of inhibition of EGFR phosphorylation”. For the same compound, the “EGFR phosphorylation and downstream signalling, PC9 triple-mutant cells” value in [12] was “No reduction of the signal pathway”. For the same compound, the “tumour growth, T790M/del19-expressing PC9 xenograft” value in [16] is “successfully suppressed the growth”. Moreover, the “tumour growth, PC9 triple-mutant xenograft” value in assay [17] is “without any superiority to control group”. Also, the median progression-free survival in the assay on confirmed EGFR T790M is listed as 9.6 months. Moreover, the response rate with confirmed EGFR T790M is 61%.
Regarding `Cc1ccc(C(=O)Nc2ccc(CN3CCN(C)CC3)c(C(F)(F)F)c2)cc1C#Cc1cnc2cccnn12` [Ponatinib, ponatinib], the IC50 in [1] (BaF3, 72 h, read-out: IC50, Ba/F3 del19) is 126 nM. The viability at 0.1 µM in [9] worked out at 40.6%; in assay [10], 53.5%. Moreover, in assay [11] (BaF3, read-out: growth inhibition against EGFR-triple-del19), the inhibition at 0.1 µM is approximately 50%. In addition, the “phosphorylation of EGFR and downstream signalling, Ba/F3 triple-del19” value in assay [15] is “no inhibitory activity”.
